Where two headings read alike, the source gives them in different places.
Experiments:
clinical = details: both, human, in vivo; for AUC(0-t) / AUC(0-inf) / Cmax: po, Least-Squares Means (LSM); for AUC(0-inf): AUCinf
[1] = plasma, fed vs fasting, Lortab + Colace co-administered, ln-transformed
[2] = Form A, plasma, Treatment A: one 10 mg/500 mg Lortab tablet + one 50 mg Colace capsule, single oral dose, fasting
[3] = Form A, plasma, Treatment A: Lortab 10 mg/500 mg + Colace 50 mg, single oral dose, fasting
[4] = Form C, plasma, Treatment C: Lortab 10 mg/500 mg + Colace 50 mg, single oral dose, fed
[5] = plasma, fed vs fasting, Lortab administered alone, ln-transformed
[6] = plasma, with docusate vs without, fasting, ln-transformed
[7] = plasma, with docusate vs without, fed, ln-transformed
[8] = Form B, plasma, Treatment B: Lortab 10 mg/500 mg alone, single oral dose, fasting
[9] = Form D, plasma, Treatment D: Lortab 10 mg/500 mg alone, single oral dose, fed

CCCCC(CC)COC(=O)CC(C(=O)OCC(CC)CCCC)S(=O)(=O)O (stereo not shown) [Docusate, dioctyl sodium sulphosuccinate]
absorption of docusate (measurable plasma concentrations) (50 mg Colace capsule oral, throughout the period of blood sampling): absorbed in measurable amounts
effect of food on Cmax (rate of exposure) (fed vs fasting): not significantly affected by food
AUC 0-t, Ratio of LSM (C/A) [1]: 124.2%
AUCinf, Ratio of LSM (C/A) [1]: 128.8%
Cmax, Ratio of LSM (C/A) [1]: 104.4%
Cmax, Ratio of LSM (C/A) (plasma, fed vs fasting, Lortab + Colace co-administered, ln-transformed, listed as docusate): 104.5%
AUC(0-t) (clinical; [2]): 1.17 µg·h/mL
AUC(0-inf) (clinical; [3]): 1.17 µg·h/mL
AUC(0-inf) (clinical; [4]): 1.51 µg·h/mL
Cmax (clinical; [3]): 0.608 µg/mL
Cmax (clinical; [4]): 0.635 µg/mL

CC(=O)Nc1ccc(O)cc1 [Acetaminophen, acetaminophen]
effect of food on Cmax (rate of exposure) (fed vs fasting): lowering the Cmax
AUC 0-t, Least-Squares Means (LSM), Form D (plasma, Treatment D: one 10 mg/500 mg Lortab tablet alone, single oral dose, fed (30 min after start of standard breakfast)): 19.54572 µg·h/mL
AUC 0-t, Ratio of LSM (C/A) [1]: 93.5%
AUCinf, Ratio of LSM (C/A) [1]: 94.8%
Cmax, Ratio of LSM (C/A) [1]: 72.3%
AUC 0-t, Ratio of LSM (D/B) [5]: 94.3%
AUCinf, Ratio of LSM (D/B) [5]: 97.3%
Cmax, Ratio of LSM (D/B) [5]: 67.9%
AUC 0-t, Ratio of LSM (A/B) [6]: 101.4%
AUCinf, Ratio of LSM (A/B) [6]: 102.9%
Cmax, Ratio of LSM (A/B) [6]: 92.0%
AUC 0-t, Ratio of LSM (C/D) [7]: 100.5%
AUCinf, Ratio of LSM (C/D) [7]: 100.3%
Cmax, Ratio of LSM (C/D) [7]: 97.9%
effect of docusate on the pharmacokinetics (under fed and fasted conditions): no significant effect
AUC(0-t) (clinical; [2]): 21 µg·h/mL
AUC(0-t) (clinical; Form B, plasma, Treatment B: one 10 mg/500 mg Lortab tablet alone, single oral dose, fasting): 20.7 µg·h/mL
AUC(0-inf) (clinical; [3]): 22.7 µg·h/mL
AUC(0-inf) (clinical; [8]): 22 µg·h/mL
AUC(0-inf) (clinical; [4]): 21.5 µg·h/mL
AUC(0-inf) (clinical; [9]): 21.4 µg·h/mL
Cmax (clinical; [3]): 5.45 µg/mL
Cmax (clinical; [8]): 5.92 µg/mL
Cmax (clinical; [4]): 3.94 µg/mL
Cmax (clinical; [9]): 4.02 µg/mL

COc1ccc2c3c1O[C@H]1C(=O)CC[C@H]4[C@@H](C2)N(C)CC[C@]314 [Hydrocodone, hydrocodone]
AUC 0-t, Ratio of LSM (A/B) (both, human, in vivo): 102.5%
AUC 0-t, Ratio of LSM (C/A) (both, human, in vivo): 105.0%
AUC 0-t, Ratio of LSM (C/D) (both, human, in vivo): 97.4%
AUC 0-t, Ratio of LSM (D/B) (both, human, in vivo): 110.6%
AUCinf, Ratio of LSM (A/B) (both, human, in vivo): 107.2%
AUCinf, Ratio of LSM (C/A) (both, human, in vivo): 105.0%
AUCinf, Ratio of LSM (C/D) (both, human, in vivo): 97.4%
AUCinf, Ratio of LSM (D/B) (both, human, in vivo): 115.6%
Cmax, Ratio of LSM (A/B) (both, human, in vivo): 100.2%
Cmax, Ratio of LSM (C/A) (both, human, in vivo): 91.7%
Cmax, Ratio of LSM (C/D) (both, human, in vivo): 97.0%
Cmax, Ratio of LSM (D/B) (both, human, in vivo): 94.6%
effect of docusate on the pharmacokinetics (in vivo): no significant effect
effect of food on Cmax (rate of exposure) (in vivo): no significant effect
effect of food on extent of exposure (AUC) (in vivo): no significant effect
Tmax (clinical): ~1 h
AUC(0-t) (clinical; Form A): 0.135 µg·h/mL
AUC(0-t) (clinical; Form B): 0.132 µg·h/mL
AUC(0-t) (clinical; Form C): 0.142 µg·h/mL
AUC(0-t) (clinical; Form D): 0.146 µg·h/mL
AUC(0-inf) (clinical; Form A): 0.162 µg·h/mL
AUC(0-inf) (clinical; Form B): 0.151 µg·h/mL
AUC(0-inf) (clinical; Form C): 0.17 µg·h/mL
AUC(0-inf) (clinical; Form D): 0.175 µg·h/mL
Cmax (clinical; Form A): 0.0243 µg/mL
Cmax (clinical; Form B): 0.0242 µg/mL
Cmax (clinical; Form C): 0.0223 µg/mL
Cmax (clinical; Form D): 0.0229 µg/mL
